What follows are molecules tested against T1, p53 Y220C (Homo sapiens, UniProt P04637, Y220C) (assay: In vitro DNA binding activity assay (HTRF / TR-FRET): stabilization of p53 Y220C and increase of its DNA binding activity). Conditions: recombinant His-tagged p53 Y220C DNA binding domain (aa 94-312), biotin-labeled consensus DNA, incubated at 27° C. or 29° C. for 60 min.
T1 construct: The recombinant protein was a truncation mutant containing only amino acids 94-312 of p53; made in house; host or cells: E. coli
T1 sequence (P04637 94-312, change not shown): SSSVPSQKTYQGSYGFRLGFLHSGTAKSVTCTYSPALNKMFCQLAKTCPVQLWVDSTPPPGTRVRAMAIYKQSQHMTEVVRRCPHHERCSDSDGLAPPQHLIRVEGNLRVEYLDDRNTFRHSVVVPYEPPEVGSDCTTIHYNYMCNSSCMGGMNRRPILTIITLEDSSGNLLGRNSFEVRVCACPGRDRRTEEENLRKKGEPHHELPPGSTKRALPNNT
Assay type: biochemical
Summary of the method: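 Compound effect on DNA binding of recombinant His-p53 Y220C (E. coli) to biotin-labeled consensus DNA, expressed as SC150, the concentration giving 50% increase versus untreated. Serial 3-fold DMSO dilutions of 4.5 mM stocks; room-temperature steps of 15 then 20 min.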
With COCC(O)CN1CCC(Nc2cccc3c2cc(C#CCNc2ccc(S(C)(=O)=O)cc2OC)n3CC(F)(F)F)C1 (stereo not drawn) [Compound 455A, 1-{3-[(2-{3-{(4-methanesulfonyl-2-methoxyphenyl)amino]prop-1-yn-1-yl}-1-(2,2,2-trifluoroethyl)-1H-indol-4-yl)amino]pyrrolidin-1-yl}-3-methoxypropan-2-ol] the “SC150 (concentration of the compound required to increase the DNA binding activity by 50%)” value was “+ (+ = 0 μM ≤ SC150 < 0.05 μM)”. For CS(=O)(=O)c1ccc(NCC#Cc2cc3c(NC4CCN(C(=O)CO)CC4)cccc3n2CC(F)(F)F)c(O)c1 [Compound 731A, 2-hydroxy-1-{4-[(2-{3-[(2-hydroxy-4-methanesulfonylphenyl)amino]prop-1-yn-1-yl}-1-(2,2,2-trifluoroethyl)-1H-indol-4-yl)amino]piperidin-1-yl}ethan-1-one], the “SC150 (concentration of the compound required to increase the DNA binding activity by 50%)” value was “+ (+ = 0 μM ≤ SC150 < 0.05 μM)”. For COc1cc(S(N)(=O)=O)ccc1NCC#Cc1cc2c(N[C@H]3CC[C@@H](N4CC5(CCOCC5)C4)CC3)cccc2n1CC(F)(F)F [Compound 298A, 3-methoxy-4-{[3-(4-{[(1S,4S)-4-{7-oxa-2-azaspiro[3.5]nonan-2-yl}cyclohexyl]amino}-1-(2,2,2-trifluoroethyl)-1H-indol-2-yl)prop-2-yn-1-yl]amino}benzene-1-sulfonamide], the “SC150 (concentration of the compound required to increase the DNA binding activity by 50%)” value was “+ (+ = 0 μM ≤ SC150 < 0.05 μM)”. With CCC(=O)OC(C)CN1CCC(Nc2cccc3c2cc(C#CCNc2ccc(S(N)(=O)=O)cc2OC)n3CC(F)(F)F)CC1 (stereo not drawn) [Compound 605A, 1-{4-[(2-{3-[(2-methoxy-4-sulfamoylphenyl)amino]prop-1-yn-1-yl}-1-(2,2,2-trifluoroethyl)-1H-indol-4-yl)amino]piperidin-1-yl} propan-2-yl propanoate] the “SC150 (concentration of the compound required to increase the DNA binding activity by 50%)” value was “+ (+ = 0 μM ≤ SC150 < 0.05 μM)”. For COc1cc(S(N)(=O)=O)ccc1NCC#Cc1cc2c(N[C@H]3CC[C@H](N4CCC(OC)CC4)CC3)cccc2n1CC(F)(F)F [Compound 354A, 3-methoxy-4-{[3-(4-{[(1R,4R)-4-(4-methoxypiperidin-1-yl)cyclohexyl]amino}-1-(2,2,2-trifluoroethyl)-1H-indol-2-yl)prop-2-yn-1-yl]amino}benzene-1-sulfonamide], the “SC150 (concentration of the compound required to increase the DNA binding activity by 50%)” value was “+ (+ = 0 μM ≤ SC150 < 0.05 μM)”. For COc1cc(S(=O)(=O)N2CC3(COC3)C2)ccc1NCC#Cc1cc2c(NC3CCS(=O)(=O)CC3)cccc2n1CC(F)(F)F [Compound 1047A, 4-[(2-{3-[(2-methoxy-4-{2-oxa-6-azaspiro[3.3]heptane-6-sulfonyl}phenyl)amino]prop-1-yn-1-yl}-1-(2,2,2-trifluoroethyl)-1H-indol-4-yl)amino]-1λ^6-thiane-1,1-dione], the “SC150 (concentration of the compound required to increase the DNA binding activity by 50%)” value was “+ (+ = 0 μM ≤ SC150 < 0.05 μM)”. CNC(=O)c1ccc(NCC#Cc2cc3c(NC4CCN(CCOC)CC4)cccc3n2CC(F)(F)F)c(OC)c1 [Compound 616A, 3-methoxy-4-{[3-(4-{[1-(2-methoxyethyl)piperidin-4-yl]amino}-1-(2,2,2-trifluoroethyl)-1H-indol-2-yl)prop-2-yn-1-yl]amino}-N-methylbenzamide] was tested, and the “SC150 (concentration of the compound required to increase the DNA binding activity by 50%)” value was “+ (+ = 0 μM ≤ SC150 < 0.05 μM)”. For COc1cc(S(C)(=O)=O)ccc1NCC#Cc1cc2c(NC(=O)N[C@H]3CC[C@@H](N(C)C)CC3)cccc2n1CC(F)(F)F [Compound 10A, 3-(2-{3-[(4-methanesulfonyl-2-methoxyphenyl)amino]prop-1-yn-1-yl}-1-(2,2,2-trifluoroethyl)-1H-indol-4-yl)-1-[(1S,4S)-4-(dimethylamino)cyclohexyl]urea], the “SC150 (concentration of the compound required to increase the DNA binding activity by 50%)” value was “++++ (++++ = 0.2 μM ≤ SC150 < 1 μM)”. COCC(O)CN1CC[C@H](Nc2cccc3c2cc(C#CCNc2ccc(S(C)(=O)=O)cc2OC)n3CC(F)(F)F)[C@@H](C)C1 (mixture of isomers) [Compound 702A, rac-1-[(3R,4S)-4-[(2-{3-[(4-methanesulfonyl-2-methoxyphenyl)amino]prop-1-yn-1-yl}-1-(2,2,2-trifluoroethyl)-1H-indol-4-yl)amino]-3-methylpiperidin-1-yl]-3-methoxypropan-2-ol] was tested, and the “SC150 (concentration of the compound required to increase the DNA binding activity by 50%)” value was “+ (+ = 0 μM ≤ SC150 < 0.05 μM)”. COc1cc(S(N)(=O)=O)ccc1NCC#Cc1cc2c(NC3CCOCC3)cc(F)cc2n1CC(F)(F)F [Compound 998A, 4-[(3-{6-fluoro-4-[(oxan-4-yl)amino]-1-(2,2,2-trifluoroethyl)-1H-indol-2-yl}prop-2-yn-1-yl)amino]-3-methoxybenzene-1-sulfonamide] was tested, and the “SC150 (concentration of the compound required to increase the DNA binding activity by 50%)” value was “+ (+ = 0 μM ≤ SC150 < 0.05 μM)”. COc1cc(S(N)(=O)=O)ccc1NCC#Cc1cc2c(N[C@H]3CCN(C[C@H](COC(C)=O)OC(C)=O)C[C@H]3F)cccc2n1CC(F)(F)F [Compound 888A, (2R)-1-(acetyloxy)-3-[(3R,4S)-3-fluoro-4-[(2-{3-[(2-methoxy-4-sulfamoylphenyl)amino]prop-1-yn-1-yl}-1-(2,2,2-trifluoroethyl)-1H-indol-4-yl)amino]piperidin-1-yl]propan-2-yl acetate] was tested, and the “SC150 (concentration of the compound required to increase the DNA binding activity by 50%)” value was “+ (+ = 0 μM ≤ SC150 < 0.05 μM)”. CNC(=O)c1ccc(NCC#Cc2cc3c(N[C@H]4CCN(C)C[C@H]4F)cccc3n2CC(F)(F)F)c(OC)c1 (racemic) [Compound 783A, 4-[3-[4-[[(3R,4S)-3-fluoro-1-methyl-4-piperidyl]amino]-1-(2,2,2-trifluoroethyl)indol-2-yl]prop-2-ynylamino]-3-methoxy-N-methyl-benzamide] was tested, and the “SC150 (concentration of the compound required to increase the DNA binding activity by 50%)” value was “+ (+ = 0 μM ≤ SC150 < 0.05 μM)”. CCN1CC[C@H](Nc2cccc3c2cc(C#CCNc2ccc(C(=O)O)cc2OC)n3CC(F)(F)F)[C@H](F)C1 (racemic) [Compound 958A, 4-((3-(4-(((3R,4S)-1-ethyl-3-fluoropiperidin-4-yl)amino)-1-(2,2,2-trifluoroethyl)-1H-indol-2-yl)prop-2-yn-1-yl)amino)-3-methoxybenzoic acid] was tested, and the “SC150 (concentration of the compound required to increase the DNA binding activity by 50%)” value was “+ (+ = 0 μM ≤ SC150 < 0.05 μM)”. For COCC(O)CN1CCC(Nc2cccc3c2cc(C#CCNc2ccc(S(C)(=O)=O)cc2Cl)n3CC(F)(F)F)CC1 (stereo not drawn) [Compound 713A, 1-{4-[(2-{3-[(2-chloro-4-methanesulfonylphenyl)amino]prop-1-yn-1-yl}-1-(2,2,2-trifluoroethyl)-1H-indol-4-yl)amino]piperidin-1-yl}-3-methoxypropan-2-ol], the “SC150 (concentration of the compound required to increase the DNA binding activity by 50%)” value was “+ (+ = 0 μM ≤ SC150 < 0.05 μM)”. COc1cc(C(=O)N2CC3(COC3)C2)ccc1NCC#Cc1cc2c(NC3CCN(C)CC3)cccc2n1CC(F)(F)F [Compound 502A, 2-{3-[(2-methoxy-4-{2-oxa-6-azaspiro[3.3]heptane-6-carbonyl}phenyl)amino]prop-1-yn-1-yl}-N-(1-methylpiperidin-4-yl)-1-(2,2,2-trifluoroethyl)-1H-indol-4-amine] was tested, and the “SC150 (concentration of the compound required to increase the DNA binding activity by 50%)” value was “+ (+ = 0 μM ≤ SC150 < 0.05 μM)”. For COc1cc(C(N)=O)ccc1NCC#Cc1cc2c(N[C@@H]3C[C@@H](C)O[C@@H](C)C3)cccc2n1CC(F)(F)F [Compound 1030A, 3-methoxy-4-{[3-(4-{[(2R,4S,6S)-2,6-dimethyloxan-4-yl]amino}-1-(2,2,2-trifluoroethyl)-1H-indol-2-yl)prop-2-yn-1-yl]amino}benzamide], the “SC150 (concentration of the compound required to increase the DNA binding activity by 50%)” value was “++ (++ = 0.05 μM ≤ SC150 < 0.1 μM)”. CNC(=O)c1ccc(NCC#Cc2cc3c(N[C@H]4CC[C@@H](N5CC6CC(C5)O6)CC4)cccc3n2CC(F)(F)F)c(OC)c1 [Compound 403A, 3-methoxy-N-methyl-4-{[3-(4-{[(1S,4S)-4-{6-oxa-3-azabicyclo[3.1.1]heptan-3-yl}cyclohexyl]amino}-1-(2,2,2-trifluoroethyl)-1H-indol-2-yl)prop-2-yn-1-yl]amino}benzamide] was tested, and the “SC150 (concentration of the compound required to increase the DNA binding activity by 50%)” value was “++ (++ = 0.05 μM ≤ SC150 < 0.1 μM)”. In the case of COc1cc(S(C)(=O)=O)ccc1NCC#Cc1cc2c(N[C@H]3CCN(C)C[C@@H]3O)cccc2n1CC(F)(F)F (racemic) [Compound 767A, rac-(3R,4R)-4-[(2-{3-[(4-methanesulfonyl-2-methoxyphenyl)amino]prop-1-yn-1-yl}-1-(2,2,2-trifluoroethyl)-1H-indol-4-yl)amino]-1-methylpiperidin-3-ol], the “SC150 (concentration of the compound required to increase the DNA binding activity by 50%)” value is reported as “+ (+ = 0 μM ≤ SC150 < 0.05 μM)”. For COc1cc(C(=O)N2CC3(CCOCC3)C2)ccc1NCC#Cc1cc2c(N[C@@H]3CCN(C)C[C@@H]3F)cccc2n1CC(F)(F)F [Compound 907A, N-[(3S,4R)-3-fluoro-1-methylpiperidin-4-yl]-2-{3-[(2-methoxy-4-{7-oxa-2-azaspiro[3.5]nonane-2-carbonyl}phenyl)amino]prop-1-yn-1-yl}-1-(2,2,2-trifluoroethyl)-1H-indol-4-amine], the “SC150 (concentration of the compound required to increase the DNA binding activity by 50%)” value was “+ (+ = 0 μM ≤ SC150 < 0.05 μM)”. In the case of COC(=O)c1ccc(NCC#Cc2cc3c(N[C@@H]4CCN(CC(=O)N(C)C)C[C@@H]4F)cccc3n2CC(F)(F)F)c(OC)c1 [Compound 913A, methyl 4-{[3-(4-{[(3S,4R)-1-[(dimethylcarbamoyl)methyl]-3-fluoropiperidin-4-yl]amino}-1-(2,2,2-trifluoroethyl)-1H-indol-2-yl)prop-2-yn-1-yl]amino}-3-methoxybenzoate], the “SC150 (concentration of the compound required to increase the DNA binding activity by 50%)” value is reported as “+ (+ = 0 μM ≤ SC150 < 0.05 μM)”. For COCCN(CCOC)[C@H]1CC[C@H](Nc2cccc3c2cc(C#CCNc2ccc(S(N)(=O)=O)cc2OCF)n3CC(F)(F)F)CC1 [Compound 166A, 3-(fluoromethoxy)-4-{[3-(4-{[(1R,4R)-4-[bis(2-methoxyethyl)amino]cyclohexyl]amino}-1-(2,2,2-trifluoro-ethyl)-1H-indol-2-yl)prop-2-yn-1-yl]amino} benzene-1-sulfonamide], the “SC150 (concentration of the compound required to increase the DNA binding activity by 50%)” value was “+ (+ = 0 μM ≤ SC150 < 0.05 μM)”.

From patent US12428406B2 (PMV Pharmaceuticals, Inc., priority 2019, dated 2025)
